From patent US20240246966A1, “NEW PYRAZOLO[1,5-a] PYRIMIDINE DERIVATIVES AS SIGMA LIGANDS” (ACONDICIONAMIENTO TARRASENSE, priority 2021, published 2024)

What was measured:
[1] = target: T1, Human σ2/TMEM97 receptor (Homo sapiens, UniProt Q5BJF2); test: Binding assay to human σ2/TMEM97 receptor ([3H]-DTG, transfected HEK-293 membranes); conditions: human σ2/TMEM97, [3H]-DTG 10 nM, binding expressed as Ki, read-out: Binding σ-2
T1 construct: expressed in transfected cells; host or cells: HEK-293
Method: Binding Assay to Human ρ2/TMEM97 Receptor
Transfected HEK-293 membranes (15 μg) were incubated with 10 nM [^3H]-1,3-Di-o-tolylguanidine ( DTG) in assay buffer containing Tris-HCl 50 mM at pH 8.0. NSB (non-specific binding) was measured by adding 10 μM haloperidol. The binding of the test compound was measured at either one concentration (% inhibition at 1 or 10 μM) or five different concentrations to determine affinity values (Ki). Plates were incubated at 25° C. for 120 minutes. After the incubation period, the reaction mix was transferred to MultiScreen HTS, FC plates (Millipore), filtered and washed 3 times with ice-cold 10 mM Tris-HCL (pH 8.0). Filters were dried and counted at approximately 40% efficiency in a MicroBeta scintillation counter (Perkin-Elmer) using EcoScint liquid scintillation cocktail.

[2] = target: T2, Human σ1 Receptor (Homo sapiens, UniProt Q99720); test: Human σ1 receptor radioligand assay ([3H](+)-pentazocine, transfected HEK-293 membranes); conditions: human σ1, [3H](+)-pentazocine 5 nM, binding expressed as Ki, read-out: Binding σ-1
T2 construct: expressed in transfected cells; host or cells: HEK-293
T2 sequence (Q99720 whole entry): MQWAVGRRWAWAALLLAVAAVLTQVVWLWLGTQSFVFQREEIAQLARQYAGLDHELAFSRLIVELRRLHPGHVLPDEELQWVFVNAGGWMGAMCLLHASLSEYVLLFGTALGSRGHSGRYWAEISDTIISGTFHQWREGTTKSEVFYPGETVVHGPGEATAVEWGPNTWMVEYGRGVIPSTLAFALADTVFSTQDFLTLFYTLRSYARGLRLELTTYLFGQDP
Method: Human σ1 Receptor Radioligand Assay
Transfected HEK-293 membranes (7 μg) were incubated with 5 nM of [^3H](+)-pentazocine in assay buffer containing Tris-HCl 50 mM at pH 8. NBS (non-specific binding) was measured by adding 10 μM haloperidol. The binding of the test compound was measured at either one concentration (% inhibition at 1 or 10 μM) or five different concentrations to determine affinity values (Ki). Plates were incubated at 37° C. for 120 minutes. After the incubation period, the reaction mix was then transferred to MultiScreen HTS, FC plates (Millipore), filtered and plates were washed 3 times with ice-cold 10 mM Tris-HCL (pH 7.4). Filters were dried and counted at approximately 40% efficiency in a MicroBeta scintillation counter (Perkin-Elmer) using EcoScint liquid scintillation cocktail.

T1 sequence (Q5BJF2 whole entry): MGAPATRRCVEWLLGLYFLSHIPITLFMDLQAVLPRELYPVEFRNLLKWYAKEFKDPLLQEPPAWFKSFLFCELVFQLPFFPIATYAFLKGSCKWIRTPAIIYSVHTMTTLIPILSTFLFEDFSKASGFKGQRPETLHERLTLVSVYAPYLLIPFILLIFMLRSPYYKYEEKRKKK

SMILES | Ki [1] [nM] | Ki [2] [nM]
Cc1cc(-c2cnn3cc(CN4CCC5(CC4)COC5)cnc23)ccn1 [Example 15, 7-((3-(2-Methylpyridin-4-yl)pyrazolo[1,5-a]pyrimidin-6-yl)methyl)-2-oxa-7-azaspiro[3.5]nonane] | > 1000 | < 100
Clc1cc(-c2cnn3cc(CN4CCC5(CC4)COC5)cnc23)ccn1 [Example 16, 7-((3-(2-Chloropyridin-4-yl)pyrazolo[1,5-a]pyrimidin-6-yl)methyl)-2-oxa-7-azaspiro[3.5]nonane] | > 1000 | < 100
FC(F)(F)c1ccncc1-c1cnn2cc(CN3CCC4(CC3)COC4)cnc12 [Example 17, 7-((3-(4-(Trifluoromethyl)pyridin-3-yl)pyrazolo[1,5-a]pyrimidin-6-yl)methyl)-2-oxa-7-azaspiro[3.5]nonane] | > 1000 | < 100
c1ccc(-c2cnn3cc(CN4CCC5(CC4)COC5)cnc23)nc1 [Example 18, 7-((3-(Pyridin-2-yl)pyrazolo[1,5-a]pyrimidin-6-yl)methyl)-2-oxa-7-azaspiro[3.5]nonane] | > 1000 | 500 to 1000
FC(F)(F)c1cnccc1-c1cnn2cc(CN3CCC4(CC3)COC4)cnc12 [Example 19, 7-((3-(3-(Trifluoromethyl)pyridin-4-yl)pyrazolo[1,5-a]pyrimidin-6-yl)methyl)-2-oxa-7-azaspiro[3.5]nonane] | > 1000 | < 100
COC1CCN(Cc2cnc3c(-c4ccc(C(F)(F)F)nc4)cnn3c2)CC1 [Example 21, 6-((4-Methoxypiperidin-1-yl)methyl)-3-(6-(trifluoromethyl)pyridin-3-yl)pyrazolo[1,5-a]pyrimidine] | > 1000 | < 100
FC(F)(F)c1ccc(-c2cnn3cc(CN4CC5(CCOCC5)C4)cnc23)cn1 [Example 22, 2-((3-(6-(Trifluoromethyl)pyridin-3-yl)pyrazolo[1,5-a]pyrimidin-6-yl)methyl)-7-oxa-2-azaspiro[3.5]nonane] | > 1000 | < 100
COC1CCN(Cc2cnc3c(-c4ccnc(C)c4)cnn3c2)CC1 [Example 23, 6-((4-Methoxypiperidin-1-yl)methyl)-3-(2-methylpyridin-4-yl)pyrazolo[1,5-a]pyrimidine] | > 1000 | 100 to 500
Cc1cc(-c2cnn3cc(CN4CCCOCC4)cnc23)ccn1 [Example 24, 4-((3-(2-Methylpyridin-4-yl)pyrazolo[1,5-a]pyrimidin-6-yl)methyl)-1,4-oxazepane] | > 1000 | 100 to 500
COCC1CCN(Cc2cnc3c(-c4ccnc(C)c4)cnn3c2)CC1 [Example 25, 6-((4-(Methoxymethyl)piperidin-1-yl)methyl)-3-(2-methylpyridin-4-yl)pyrazolo[1,5-a]pyrimidine] | > 1000 | < 100
Cc1cc(-c2cnn3cc(CN4CCC5(CCOCC5)CC4)cnc23)ccn1 [Example 26, 9-((3-(2-Methylpyridin-4-yl)pyrazolo[1,5-a]pyrimidin-6-yl)methyl)-3-oxa-9-azaspiro[5.5]undecane] | > 1000 | 100 to 500
Cc1cc(-c2cnn3cc(CN4CC5(CCOCC5)C4)cnc23)ccn1 [Example 27, 2-((3-(2-Methylpyridin-4-yl)pyrazolo[1,5-a]pyrimidin-6-yl)methyl)-7-oxa-2-azaspiro[3.5]nonane] | > 1000 | < 100
FC(F)(F)c1cc(-c2cnn3cc(CN4CCOCC4)cnc23)ccn1 [Example 29, 4-((3-(2-(Trifluoromethyl)pyridin-4-yl)pyrazolo[1,5-a]pyrimidin-6-yl)methyl)morpholine] | > 1000 | > 1000

The remaining lines, values ahead:

Ki [1] [nM] | Ki [2] [nM] | SMILES
> 1000 | < 100 | FC(F)(F)c1cc(-c2cnn3cc(CN4CCCC4)cnc23)ccn1 [Example 1, 6-(Pyrrolidin-1-ylmethyl)-3-(2-(trifluoromethyl)pyridin-4-yl)pyrazolo[1,5-a]pyrimidine]
> 1000 | 100 to 500 | c1cc(-c2cnn3cc(CN4CCCC4)cnc23)ccn1 [Example 2, 3-(Pyridin-4-yl)-6-(pyrrolidin-1-ylmethyl)pyrazolo[1,5-a]pyrimidine]
> 1000 | < 100 | Fc1cnccc1-c1cnn2cc(CN3CCCC3)cnc12 [Example 3, 3-(3-Fluoropyridin-4-yl)-6-(pyrrolidin-1-ylmethyl)pyrazolo[1,5-a]pyrimidine]
> 1000 | < 100 | COc1ncccc1-c1cnn2cc(CN3CCCC3)cnc12 [Example 4, 3-(2-Methoxypyridin-3-yl)-6-(pyrrolidin-1-ylmethyl)pyrazolo[1,5-a]pyrimidine]
> 1000 | < 100 | c1ccc(C2CCN(Cc3cnc4c(-c5ccncc5)cnn4c3)CC2)cc1 [Example 5, 6-((4-Phenylpiperidin-1-yl)methyl)-3-(pyridin-4-yl)pyrazolo[1,5-a]pyrimidine]
100 to 500 | < 100 | FC(F)(F)c1cc(-c2cnn3cc(CN4CCC(c5ccccc5)CC4)cnc23)ccn1 [Example 6, 6-((4-Phenylpiperidin-1-yl)methyl)-3-(2-(trifluoromethyl)pyridin-4-yl)pyrazolo[1,5-a]pyrimidine]
> 1000 | 100 to 500 | FC(F)(F)c1cc(-c2cnn3cc(CN4CCC5(CCO5)CC4)cnc23)ccn1 [Example 7, 7-((3-(2-(Trifluoromethyl)pyridin-4-yl)pyrazolo[1,5-a]pyrimidin-6-yl)methyl)-1-oxa-7-azaspiro[3.5]nonane]
> 1000 | 500 to 1000 | Fc1cnccc1-c1cnn2cc(CN3CCC4(CCO4)CC3)cnc12 [Example 8, 7-((3-(3-Fluoropyridin-4-yl)pyrazolo[1,5-a]pyrimidin-6-yl)methyl)-1-oxa-7-azaspiro[3.5]nonane]
> 1000 | < 100 | FC(F)(F)c1cc(-c2cnn3cc(CN4CCC5(CC4)COC5)cnc23)ccn1 [Example 9, 7-((3-(2-(Trifluoromethyl)pyridin-4-yl)pyrazolo[1,5-a]pyrimidin-6-yl)methyl)-2-oxa-7-azaspiro[3.5]nonane]
> 1000 | < 100 | FC(F)(F)c1cc(-c2cnn3cc(CN4CCC5(CCOC5)CC4)cnc23)ccn1 [Example 10, 8-((3-(2-(Trifluoromethyl)pyridin-4-yl)pyrazolo[1,5-a]pyrimidin-6-yl)methyl)-2-oxa-8-azaspiro[4.5]decane]
> 1000 | 500 to 1000 | FC1(F)CCN(Cc2cnc3c(-c4ccnc(C(F)(F)F)c4)cnn3c2)CC1 [Example 11, 6-((4,4-Difluoropiperidin-1-yl)methyl)-3-(2-(trifluoromethyl)pyridin-4-yl)pyrazolo[1,5-a]pyrimidine]
> 1000 | < 100 | CCN(CC)Cc1cnc2c(-c3ccnc(C(F)(F)F)c3)cnn2c1 [Example 12, N-Ethyl-N-((3-(2-(trifluoromethyl)pyridin-4-yl)pyrazolo[1,5-a]pyrimidin-6-yl)methyl)ethanamine]
500 to 1000 | < 100 | FC(F)(F)c1ccc(-c2cnn3cc(CN4CCC5(CC4)COC5)cnc23)cn1 [Example 13, 7-((3-(6-(Trifluoromethyl)pyridin-3-yl)pyrazolo[1,5-a]pyrimidin-6-yl)methyl)-2-oxa-7-azaspiro[3.5]nonane]
500 to 1000 | < 100 | FC(F)(F)c1cccc(-c2cnn3cc(CN4CCC5(CC4)COC5)cnc23)n1 [Example 14, 7-((3-(6-(Trifluoromethyl)pyridin-2-yl)pyrazolo[1,5-a]pyrimidin-6-yl)methyl)-2-oxa-7-azaspiro[3.5]nonane]
500 to 1000 | 100 to 500 | Cc1nn2cc(CN3CCC4(CC3)COC4)cnc2c1-c1ccnc(C(F)(F)F)c1 [Example 20, 7-((2-Methyl-3-(2-(trifluoromethyl)pyridin-4-yl)pyrazolo[1,5-a]pyrimidin-6-yl)methyl)-2-oxa-7-azaspiro[3.5]nonane]
500 to 1000 | < 100 | COCC1CCN(Cc2cnc3c(-c4ccnc(C(F)(F)F)c4)cnn3c2)CC1 [Example 28, 6-((4-(Methoxymethyl)piperidin-1-yl)methyl)-3-(2-(trifluoromethyl)pyridin-4-yl)pyrazolo[1,5-a]pyrimidine]
500 to 1000 | < 100 | CCOCC1CCN(Cc2cnc3c(-c4ccnc(C(F)(F)F)c4)cnn3c2)CC1 [Example 30, 6-((4-(Ethoxymethyl)piperidin-1-yl)methyl)-3-(2-(trifluoromethyl)pyridin-4-yl)pyrazolo[1,5-a]pyrimidine]
100 to 500 | < 100 | FC(F)(F)c1cc(-c2cnn3cc(CN4CCCOCC4)cnc23)ccn1 [Example 31, 4-((3-(2-(Trifluoromethyl)pyridin-4-yl)pyrazolo[1,5-a]pyrimidin-6-yl)methyl)-1,4-oxazepane]
100 to 500 | < 100 | FC(F)(F)c1cc(-c2cnn3cc(CN4CCC5(CCOCC5)CC4)cnc23)ccn1 [Example 32, 9-((3-(2-(Trifluoromethyl)pyridin-4-yl)pyrazolo[1,5-a]pyrimidin-6-yl)methyl)-3-oxa-9-azaspiro[5.5]undecane]
